Measurements taken from patent US20040092428A1, “Oral pharmaceuticals formulation comprising paclitaxel, derivatives and methods of administration thereof” (priority 2001, published 2004).

Target: P-glycoprotein (Homo sapiens, UniProt P08183)
Procedure: P-glycoprotein inhibition has been determined with an in vitro assay. […] Therefore, the initial pool of compounds screened included excipients that were acceptable for oral or IV use and included PEG in the chemical structure. Compounds were first screened for toxicity in the NIH3T3 cell line and then tested for P-gp inhibition with paclitaxel using the protocol outlined below:
Day 0: Seed cells and incubate.
Day 1: Add potential P-gp inhibitor at fixed concentration and paclitaxel at various concentrations and incubate for 2 days.
Day 3: Add MTT and extraction/lysis buffer.
Day 4: Read absorbance to measure cell growth. Calculate IC50 to determine amount of paclitaxel required for cell death
After calculations of IC50 values, relative rank order of the compounds were determined.

Sequence of P-glycoprotein (P08183 whole entry): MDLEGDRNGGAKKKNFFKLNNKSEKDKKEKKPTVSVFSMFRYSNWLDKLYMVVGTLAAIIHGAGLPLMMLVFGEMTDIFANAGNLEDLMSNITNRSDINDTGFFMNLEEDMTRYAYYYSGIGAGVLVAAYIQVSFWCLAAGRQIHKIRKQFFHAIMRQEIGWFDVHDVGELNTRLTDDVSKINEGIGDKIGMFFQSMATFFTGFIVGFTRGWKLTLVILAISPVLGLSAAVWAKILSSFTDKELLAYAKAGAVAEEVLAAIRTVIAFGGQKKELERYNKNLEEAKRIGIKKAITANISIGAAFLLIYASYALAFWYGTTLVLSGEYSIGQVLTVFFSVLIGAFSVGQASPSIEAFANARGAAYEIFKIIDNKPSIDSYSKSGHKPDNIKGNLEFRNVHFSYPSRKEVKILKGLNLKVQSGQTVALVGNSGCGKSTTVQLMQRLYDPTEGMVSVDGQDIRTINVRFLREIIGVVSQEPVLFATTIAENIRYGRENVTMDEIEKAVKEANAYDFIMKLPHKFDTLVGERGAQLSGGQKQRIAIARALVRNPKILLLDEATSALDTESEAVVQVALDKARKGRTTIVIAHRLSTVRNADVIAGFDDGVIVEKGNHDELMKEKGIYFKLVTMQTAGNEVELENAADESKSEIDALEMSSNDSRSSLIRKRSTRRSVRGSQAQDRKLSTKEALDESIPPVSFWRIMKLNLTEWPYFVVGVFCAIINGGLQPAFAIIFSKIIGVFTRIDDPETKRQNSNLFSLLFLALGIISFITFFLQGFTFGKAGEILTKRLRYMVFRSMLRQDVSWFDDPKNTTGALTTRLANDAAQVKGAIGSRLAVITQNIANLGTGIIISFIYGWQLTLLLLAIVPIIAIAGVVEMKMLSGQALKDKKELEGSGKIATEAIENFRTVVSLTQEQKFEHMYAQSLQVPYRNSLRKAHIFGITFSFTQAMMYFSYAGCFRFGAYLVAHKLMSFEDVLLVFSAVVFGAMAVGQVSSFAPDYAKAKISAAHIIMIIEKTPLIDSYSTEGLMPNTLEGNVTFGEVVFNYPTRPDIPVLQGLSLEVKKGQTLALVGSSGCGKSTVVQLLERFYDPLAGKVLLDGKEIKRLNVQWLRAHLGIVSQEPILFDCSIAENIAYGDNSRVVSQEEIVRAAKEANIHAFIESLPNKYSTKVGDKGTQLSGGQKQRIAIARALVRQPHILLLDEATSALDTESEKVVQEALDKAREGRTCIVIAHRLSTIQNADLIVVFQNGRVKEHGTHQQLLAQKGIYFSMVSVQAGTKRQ

Row | Substance | P-gp inhibition measured by an IC50 ratio
1 | polysorbate 80 | > 1.0
2 | PEG-100 stearate | > 1.0
